Measured values from US10118938B2, “Arsenoplatin anti-cancer agents” (priority 2012, dated 2018).

What was measured:
[1] = test system: A2780 ovarian cancer cell line (cisplatin sensitive); assay: In vitro cytotoxicity assay (MTS), A2780; assay type: cell-based, human; conditions: MTS after 72 hours, ±SD
Experimental: (§1) The MDA-MB-231-mCherry breast cancer cells were cultured in Dulbecco's modified Eagle's medium (DMEM) and supplemented with 5% heat-inactivated fetal bovine serum (FBS), 50 units/ml penicillin, 50 μg/ml streptomycin, 2 mM L-glutamine, and 1 μg/ml blasticidin S (Sigma). The A2780 and A2780^CP ovarian cancer cell lines and the multiple myeloma RPMI 8226 cell line were cultured in RPMI 1640 medium supplemented with 10% FBS, 50 units/ml penicillin, 50 μg/ml streptomycin, 2 mM L-glutamine. The U-87 and HTC-116 cancer cell lines were cultured without antibiotics. Cells were grown at 37° C. in a humidified atmosphere of 5% of CO2.
(§2) B. In Vitro Cytotoxicity Assay for MDA-MB-231mCherry, A270 and A2780CP Cancer Cell Lines.
The cytotoxicities of compound (1), cisplatin, and As2O3 were assessed by MTS assay using the CellTiter 96 Aqueous MTS (Promega). The 100 μL aliquots of cell suspension (1.0×10^5 cells/ml) were plated in 96-well tissue culture plates in the incubator overnight at 37° C. in a humidified atmosphere of 5% of CO2. The serial dilutions of compound (1), cisplatin, and As2O3 in appropriate media were transferred to the cells. The MTS solution (20 μL) was added after 72 hours and the absorbance was measured at 495 nm 4 hours later. Sigmoidal dose response curves were plotted using the GraphPad Prism software. The IC50 values were obtained on at least three independent experiments. In vitro cytotoxicity assay for U-87 and HTC-116 cancer cell line. For the experiment, cells were cultured in RPMI 1640 medium with 5% FBS and 2 mM L-glutamine. […] HCT-116 and U-87 cancer cell were plated in 96 well plates. The cells were plated in four replicates. The densities of the cells were 5000 and 10000 per well in 90 μL for HTC-116 and U-87, respectively. […] The cells were treated with 100, 10, 1, 0.1 0.01, 0.001, 0.0001, 0.00001 and 0.000001 μM of compound (1), cisplatin, and As2O3. […] The plates were shaken for 2 minutes and allowed to sit for activation prior to reading for 10 minutes. Plates were read on Biotek Synergy H1 (Biotek, Wenooski, Vt.) reader capable of luminescence detection.

[2] = test system: colon HCT-116 cells; assay type: cell-based, human; conditions: Cell Titer Glow, 48 hours post drug treatment, ±SD, read-out: IC50 values in μM (±SD), HTC−116
Experimental: as §1
(§3) The cytotoxicities of compound (1), cisplatin, and As2O3 were assessed by MTS assay using the CellTiter 96 Aqueous MTS (Promega). The 100 μL aliquots of cell suspension (1.0×10^5 cells/ml) were plated in 96-well tissue culture plates in the incubator overnight at 37° C. in a humidified atmosphere of 5% of CO2. The serial dilutions of compound (1), cisplatin, and As2O3 in appropriate media were transferred to the cells. The MTS solution (20 μL) was added after 72 hours and the absorbance was measured at 495 nm 4 hours later. Sigmoidal dose response curves were plotted using the GraphPad Prism software. The IC50 values were obtained on at least three independent experiments. In vitro cytotoxicity assay for U-87 and HTC-116 cancer cell line. For the experiment, cells were cultured in RPMI 1640 medium with 5% FBS and 2 mM L-glutamine. […] HCT-116 and U-87 cancer cell were plated in 96 well plates. The cells were plated in four replicates. The densities of the cells were 5000 and 10000 per well in 90 μL for HTC-116 and U-87, respectively. […] The cells were treated with 100, 10, 1, 0.1 0.01, 0.001, 0.0001, 0.00001 and 0.000001 μM of compound (1), cisplatin, and As2O3. After 48 hours post drug treatment all plates were allowed to equilibrate for 30 minutes at room temperature from incubator. Addition of 100 μL of Cell Titer Glow (Promega, Fitchburg, Wis.) reagent was added to the wells. The plates were shaken for 2 minutes and allowed to sit for activation prior to reading for 10 minutes. Plates were read on Biotek Synergy H1 (Biotek, Wenooski, Vt.) reader capable of luminescence detection.

[3] = test system: glioblastoma U-87 cells; assay type: cell-based, human; conditions: Cell Titer Glow, 48 hours post drug treatment, ±SD
Experimental: as §1, §3

[4] = test system: multiple myeloma RPMI 8226 cell line; assay type: cell-based, human; conditions: ±SD
Experimental: as §1, §3

[5] = test system: MDA-MB-231-mCherry breast cancer cells; assay type: cell-based, human; conditions: triple negative breast cancer; MTS after 72 hours; ±SD
Experimental: as §1, §2, §3

[6] = test system: A2780^CP ovarian cancer cell line (cisplatin resistant); assay type: cell-based, human; conditions: for IC50: ovarian cisplatin resistant, MTS after 72 hours, ±SD
Experimental: as §1, §2, §3

[7] = Linkage isomerization in [D6]DMSO solution by NMR; assay type: physicochemical; conditions: compound (5) dissolved in [D6]DMSO, room temperature; S-isomer = compound (5), N-isomer = compound (6)
Description: Solution NMR and X-ray crystallography confirm that the Pt—As bond remained intact. Crystals suitable for a single crystal X-ray analysis were obtained when compound (5) was synthesized in a 1:1 water/methanol mixture, where the SCN^− ion is bound to Pt(II) through the sulfur atom (FIG. 1D). […] Assignments of chemical shifts for the S- and N-bound isomers signals are based on multidimensional ^195Pt and ^15N NMR spectroscopy on sample of compound (5) which is synthesized using thiocyanate enriched in ^13C and ^15N at 99% (FIG. 2).
Cisplatin, K2[PtCl4], DMSO, methanol, acetonitrile, propionitrile and As2O3 were purchased from Sigma-Aldrich and used without further purification. Media for the cell cultures and all other cell supplements were purchased from Invitrogen. The following spectrometers were used: NMR: Bruker Avance-III 600 and 500 MHz; chemical shifts (^1H, ^13C) were referenced to tetramethylsilane at 0.000 ppm ^1H and ^13C if it was present, and to residual solvent signal for samples in which TMS was absent (for [D6]DMSO, δH=2.50 ppm and δC=39.5 ppm). […] UV/Vis electron absorbance measurements were performed on a Perkin Elmer Lambda 650 spectrophotometer. […]

[8] = Solubility of the isolated complex; assay type: physicochemical
Experimental: Cisplatin (300 mg, 1.00 mmol) or K2[PtCl4] (415 mg, 1.00 mmol) was added to 125 cm^3 of 9:1 CH3CN/H2O (v/v). The mixture was stirred at 90° C. Once the platinum compound was dissolved, 396 mg As2O3(2.00 mmol) was added to the solution, and the reaction mixture was stirred at 90° C. for 72 hours. The resulting mixture was filtered, and the filtrate was left at room temperature in a glass beaker for approximately 4 weeks until crystals formed. Crystals suitable for a single crystal X-ray analysis were retrieved from solution. The solution was filtered, washed with CH3CN:H2O (9:1 mixture), and the obtained crystals were dried in a dessicator. Yield 350 mg product (75%; 23% when cisplatin is used). […] Elemental analysis (% calcd., found for C7H18.5AsClN3.5O6Pt): C (15.20, 15.24), H (3.37, 3.36), N (8.86, 8.69). NMR: ^1H NMR (600 MHz, [D6]DMSO, 25° C.) δ: 8.91 (s, 2H—OH), 8.15 (s, 2H—NH), 2.13 (s, 6H—CH3). ^13C NMR (150 MHz, [D6]DMSO, 25° C.): δ 172.1 (C-1, C-3), 171.4 (C-5, C-7), 22.5 (C-6, C-8), 16.6 (C-2, C-4). ^15N NMR (60 MHz, from the ^1H-^15N HSQC, [D6]DMSO, referenced to ^15NH4Cl, 25° C.): δ 106.4 (N-1, N-2), ^195Pt NMR (129 MHz, [D6]DMSO, 25° C.), δ: −3589 (s, 1Pt) ppm. UV/Vis ((methanol-water=1:1): λ1=283 nm (ε=4062 dm^3 mol^−1 cm^−1), λ2=247 nm (ε=3621 dm^3 mol^−1 cm^−1), sh. 260 nm.
LC/ESI-MS data were recorded every 24 hours. The color gradually turned yellow and ultimately colorless over the 4 day period. The resulting mixture was filtered and left to sit (pH roughly 2) at 25° C., and, within a week, crystals suitable for single crystal X-ray analysis appeared. The solution was filtered again, washed with H2O, dried, and weighed (212 mg 44%).
Compound (1) obtained in Example 2 (100 mg 0.18 mmol) was dissolved in 4 cm^3 of methanol and added to an equal-molar solution of KSCN (17.6 mg 0.180 mmol) in 4 cm^3 of water. The reaction mixture was allowed to stir at 50° C. for 5 hours. The mixture was filtered and the solution was left standing at room temperature until crystals appeared. The obtained crystals were removed by filtration. Yield: 60.00 mg (52%). Elemental analysis (% calcd., found for PtC5H10N3O4SAs): C (12.56, 12.37), H (2.11, 1.97), N (8.78, 8.56). NMR data: ^1H NMR (600 MHz, [D6]DMSO): δ 2.21 (s, 6H, CH3), 7.70 (s, 2H, NH), 9.20 (s, 2H, OH). ^13C NMR (150 MHz, [D6]DMSO) δ 17.5 (CH3), 117.7 (SCN), 172.6 (CO); ^195Pt NMR (129 MHz, [D6]DMSO) δ −3861 ppm (s, 1Pt); UV/Vis (methanol-water=1:1): λ1=285 nm (ε=4217 dm^3 mol^−1 cm^−1); λ2=225 nm (ε=15919 dm^3 mol^−1 cm^−1), shoulder at 265 nm.

[9] = test system: panel of human cancer cell lines; assay: Anticancer activity in a panel of human cancer cell lines; assay type: cell-based
Experimental: as §1
The cytotoxicities of compound (1), cisplatin, and As2O3 were assessed by MTS assay using the CellTiter 96 Aqueous MTS (Promega). The 100 μL aliquots of cell suspension (1.0×10^5 cells/ml) were plated in 96-well tissue culture plates in the incubator overnight at 37° C. in a humidified atmosphere of 5% of CO2. The serial dilutions of compound (1), cisplatin, and As2O3 in appropriate media were transferred to the cells. The MTS solution (20 μL) was added after 72 hours and the absorbance was measured at 495 nm 4 hours later. […] The plates were shaken for 2 minutes and allowed to sit for activation prior to reading for 10 minutes. Plates were read on Biotek Synergy H1 (Biotek, Wenooski, Vt.) reader capable of luminescence detection.

**Q.** Which results are given for N.N.[Cl][Pt][Cl] [Cisplatin, Cis-diamminedichloroplatinum(II)]?
**A.** IC50 [1]: 3.1 ± 1.1 µM; IC50 [2]: 5.5 ± 1.3 µM; IC50 [3]: 9.6 ± 0.8 µM; IC50 [4]: 1.9 ± 0.1 µM; IC50 [5]: 22.3 ± 2.8 µM; IC50 [6]: 47.3 ± 2.1 µM

**Q.** Which results are given for “[Pt(μ-NHC(CH3)O)2(SCN)As(OH)2] [Compound (5)]”?
**A.** share of isomer in equilibrium mixture [7]: 64±1.2%; solubility in organic solvents [8]: DMSO and methanol

**Q.** Which IC50 [1] does the source give for “[Pt(μ-NHC(CH3)O)2ClAs(OH)2] [Compound (1)]” here?
**A.** 20.3 ± 4 µM

**Q.** What about the “anticancer activity in a panel of human cancer cell lines” value [9] of the same compound?
**A.** significant anticancer activity

**Q.** And the IC50 [2]?
**A.** 1.6 ± 0.4 µM

**Q.** And the IC50 [3]?
**A.** 0.37 ± 0.11 µM

**Q.** What about the IC50 [4] of the same compound?
**A.** 4.5 ± 1 µM

**Q.** And the “solubility in organic solvents” value [8]?
**A.** soluble in DMSO, methanol, ethanol

**Q.** What about the solubility in water [8] of the same compound?
**A.** partially in water

**Q.** And the IC50 [5]?
**A.** 9.5 ± 0.1 µM

**Q.** What about the “resistance factor (RF)” value ([6]; ovarian A2780 and A2780^CP cell lines, RF value of <2 denotes no cross-resistance) of the same compound?
**A.** 1.1

**Q.** What about the IC50 [6] of the same compound?
**A.** 21.4 ± 1.8 µM

**Q.** For arsenic trioxide [As2O3], which IC50 [1] is on record?
**A.** 17.1 ± 1.5 µM

**Q.** What about the IC50 [2] of the same compound?
**A.** 9.4 ± 0.9 µM

**Q.** And the IC50 [3]?
**A.** 1.6 ± 2.9 µM

**Q.** And the IC50 [4]?
**A.** 7.1 ± 0.2 µM

**Q.** What about the IC50 [5] of the same compound?
**A.** 11.9 ± 2.3 µM

**Q.** And the IC50 [6]?
**A.** 21.6 ± 1.4 µM

**Q.** Which “share of isomer in equilibrium mixture” value [7] does the source give for “[Pt(μ-NHC(CH3)O)2(NCS)As(OH)2] [Compound (6)]” here?
**A.** 36%

**Q.** For “[Pt(μ-NHC(CH3CH2)O)2ClAs(OH)2] [Compound (2)]”, which “anticancer activity in a panel of human cancer cell lines” value [9] is on record?
**A.** significant anticancer activity

**Q.** And the “solubility in organic solvents” value [8]?
**A.** soluble in methanol, DMSO

**Q.** What about the solubility in water [8] of the same compound?
**A.** partially soluble in H2O
